Reference: publication PMC9516332 (Frontiers in Oncology, 2022)
Read-outs that look alike come from different tables or passages of the source.

Key:
Assay in all cases: Kinase panel profiling at 1 µmol/L (MSA or IMAP), percentage inhibition
Format in all cases: biochemical
[1] = target: T1, panel of 255 wild-type kinases (Homo sapiens, UniProt Q12866); conditions: read-out: %-inhibition, MER
T1 sequence (Q12866 21-999): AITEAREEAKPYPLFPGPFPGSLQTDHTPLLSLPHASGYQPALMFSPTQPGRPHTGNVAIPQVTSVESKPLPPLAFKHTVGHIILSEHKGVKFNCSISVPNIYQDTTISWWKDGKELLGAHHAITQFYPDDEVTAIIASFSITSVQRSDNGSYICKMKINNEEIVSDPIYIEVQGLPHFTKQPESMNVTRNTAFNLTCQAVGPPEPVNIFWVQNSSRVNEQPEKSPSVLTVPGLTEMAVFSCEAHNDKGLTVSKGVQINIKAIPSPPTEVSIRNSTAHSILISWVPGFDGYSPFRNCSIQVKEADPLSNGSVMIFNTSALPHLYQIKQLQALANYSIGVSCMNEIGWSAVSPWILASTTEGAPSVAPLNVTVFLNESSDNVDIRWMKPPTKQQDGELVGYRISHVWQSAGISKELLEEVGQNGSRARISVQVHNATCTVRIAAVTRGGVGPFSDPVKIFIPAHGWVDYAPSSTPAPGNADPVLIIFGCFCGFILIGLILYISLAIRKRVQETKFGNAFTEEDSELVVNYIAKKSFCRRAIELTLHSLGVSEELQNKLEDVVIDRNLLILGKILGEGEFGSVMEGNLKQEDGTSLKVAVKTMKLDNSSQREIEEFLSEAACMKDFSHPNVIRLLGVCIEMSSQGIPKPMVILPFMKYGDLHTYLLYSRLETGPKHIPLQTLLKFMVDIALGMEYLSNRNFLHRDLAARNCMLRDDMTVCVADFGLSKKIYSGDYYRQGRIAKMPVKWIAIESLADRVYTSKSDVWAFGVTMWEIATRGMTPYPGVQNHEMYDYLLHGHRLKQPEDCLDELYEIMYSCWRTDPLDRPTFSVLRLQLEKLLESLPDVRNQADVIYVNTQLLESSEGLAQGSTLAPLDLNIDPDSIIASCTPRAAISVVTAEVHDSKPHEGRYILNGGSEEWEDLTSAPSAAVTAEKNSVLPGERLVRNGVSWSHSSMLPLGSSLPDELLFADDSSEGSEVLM

[2] = target: T2, panel of 255 wild-type kinases (Homo sapiens, UniProt P29323); conditions: kinase EPHB2; 1 µmol/L single concentration; read-out: %-inhibition at 1 µmol/L, EPHB2
T2 sequence (P29323 19-1055): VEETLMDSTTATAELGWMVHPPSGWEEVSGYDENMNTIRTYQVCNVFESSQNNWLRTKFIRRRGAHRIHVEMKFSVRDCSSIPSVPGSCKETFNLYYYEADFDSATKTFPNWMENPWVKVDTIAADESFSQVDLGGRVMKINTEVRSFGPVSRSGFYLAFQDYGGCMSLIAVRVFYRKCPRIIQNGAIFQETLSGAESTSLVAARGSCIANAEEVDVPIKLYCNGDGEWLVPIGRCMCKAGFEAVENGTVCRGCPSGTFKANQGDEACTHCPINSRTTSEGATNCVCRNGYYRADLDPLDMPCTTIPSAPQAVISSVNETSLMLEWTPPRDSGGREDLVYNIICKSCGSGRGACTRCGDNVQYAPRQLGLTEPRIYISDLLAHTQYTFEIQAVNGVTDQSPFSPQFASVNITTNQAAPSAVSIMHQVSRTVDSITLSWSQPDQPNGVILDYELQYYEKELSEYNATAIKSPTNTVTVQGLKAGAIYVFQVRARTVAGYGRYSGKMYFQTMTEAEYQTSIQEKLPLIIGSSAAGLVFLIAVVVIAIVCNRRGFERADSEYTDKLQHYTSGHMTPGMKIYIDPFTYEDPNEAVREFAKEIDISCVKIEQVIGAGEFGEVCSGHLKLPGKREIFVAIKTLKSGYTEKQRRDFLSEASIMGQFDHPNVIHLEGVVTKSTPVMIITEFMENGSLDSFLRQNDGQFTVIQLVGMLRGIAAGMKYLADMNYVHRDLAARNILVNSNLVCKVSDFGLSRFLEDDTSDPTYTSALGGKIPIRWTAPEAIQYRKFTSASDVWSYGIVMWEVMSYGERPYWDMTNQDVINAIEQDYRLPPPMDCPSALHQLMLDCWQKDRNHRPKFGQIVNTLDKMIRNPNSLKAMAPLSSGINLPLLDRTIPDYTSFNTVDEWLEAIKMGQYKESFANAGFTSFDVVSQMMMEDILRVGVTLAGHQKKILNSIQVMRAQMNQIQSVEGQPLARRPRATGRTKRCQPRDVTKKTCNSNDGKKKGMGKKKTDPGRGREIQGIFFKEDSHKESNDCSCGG

[3] = target: panel of 255 wild-type kinases (Homo sapiens, UniProt P49840); conditions: kinase GSK3α; 1 µmol/L single concentration; read-out: %-inhibition at 1 µmol/L, GSK3α
[4] = target: panel of 255 wild-type kinases (Homo sapiens, UniProt Q15418); conditions: kinase RSK1; 1 µmol/L single concentration; read-out: %-inhibition at 1 µmol/L, RSK1
[5] = target: panel of 255 wild-type kinases (Homo sapiens, UniProt Q9UQM7); conditions: CaMK2α kinase assay; 1 µmol/L single concentration; read-out: %-inhibition CaMK2α
[6] = target: T3, panel of 255 wild-type kinases (Homo sapiens, UniProt Q96PN8); conditions: kinase TSSK3; 1 µmol/L single concentration; read-out: %-inhibition at 1 µmol/L, TSSK3
T3 sequence (Q96PN8 1-268): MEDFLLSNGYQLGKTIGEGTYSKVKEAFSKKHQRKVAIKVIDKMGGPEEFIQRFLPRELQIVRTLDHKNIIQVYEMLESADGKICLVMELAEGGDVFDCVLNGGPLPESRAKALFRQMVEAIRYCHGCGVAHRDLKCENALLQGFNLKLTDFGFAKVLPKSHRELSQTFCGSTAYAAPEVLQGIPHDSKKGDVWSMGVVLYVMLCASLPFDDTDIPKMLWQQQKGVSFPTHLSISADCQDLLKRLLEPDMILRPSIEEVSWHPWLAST

[7] = target: panel of 255 wild-type kinases (Homo sapiens, UniProt P05129); conditions: kinase PKCγ; 1 µmol/L single concentration; read-out: %-inhibition at 1 µmol/L, PKCγ
[8] = MER, 1 µmol/L single concentration

Structure (SMILES) | inhibition at 1 µM [1, 8] | inhibition at 1 µM [2] | inhibition at 1 µM [3] | inhibition at 1 µM [4] | inhibition at 1 µM [5] | inhibition at 1 µM [6] | inhibition at 1 µM [7] | inhibition at 1 µM [1]
CO[C@]1(C(=O)N[C@@H](C)c2ccc(-n3cc(F)cn3)nc2)CC[C@H](c2nc(C)cc(Nc3cc(C)[nH]n3)n2)CC1 [pralsetinib] | 79% | 35% | 62% | 26% | -1.59% | -5% | 1.41% | 
COc1cc2ncnc(Nc3ccc(F)c(Cl)c3)c2cc1NC(=O)/C=C/CN1CCCCC1 [dacomitinib] | 19% | 51% | 1.45% | 4.37% | -1.13% | 3% | 4% | 
CCn1c(=O)c(-c2cc(NC(=O)Nc3ccccc3)c(F)cc2Br)cc2cnc(NC)cc21 [ripretinib] | -11% | 75% | -0.0405% | 8% | -5.68% | -0.0717% | 0.0973% | 
Cc1nc(NC(=O)N2CCC[C@H]2C(N)=O)sc1-c1ccnc(C(C)(C)C(F)(F)F)c1 [alpelisib] | -3.44% | 1.07% | -2.64% | -0.527% | -1.21% | 0.673% | -1.86% | 
C=CC(=O)N1CCC([C@@H]2CCNc3c(C(N)=O)c(-c4ccc(Oc5ccccc5)cc4)nn32)CC1 [zanubrutinib] | 6% | -1.07% | -7% | -2.79% | 2% | 0.315% | -2.24% | 
O=C(Nc1cnn2ccc(N3CCC[C@@H]3c3cc(F)ccc3F)nc12)N1CC[C@H](O)C1 [larotrectinib] | 6% | -0.574% | -6.65% | -3.46% | 2.74% | 0.55% | -1.62% | 
Cc1cc(Nc2ncnc3ccc(NC4=NC(C)(C)CO4)cc23)ccc1Oc1ccn2ncnc2c1 [tucatinib] | 12% | 2.14% | 5.54% | -4.66% | -3% | -0.029% | -1.73% | 
FC(F)(F)c1ccc(CNc2ccc(Cc3c[nH]c4ncc(Cl)cc34)cn2)cn1 [pexidartinib] | 54% | 8% | 3% | 7.43% | -4% | 10% | 4.68% | 
Cn1cnc2c(F)c(Nc3ccc(Br)cc3F)c(C(=O)NOCCO)cc21 [binimetinib] | -2.19% | 3.33% | -2.8% | -5.55% | -4.55% | 2.62% | 0.893% | 
CN1CCN(c2ccc(C(=O)Nc3n[nH]c4ccc(Cc5cc(F)cc(F)c5)cc34)c(NC3CCOCC3)c2)CC1 [entrectinib] | 61% | 64% | -0.424% |  | 12% | 5.68% | 1% | 
COC(=O)N[C@@H](C)CNc1nccc(-c2cn(C(C)C)nc2-c2cc(Cl)cc(NS(C)(=O)=O)c2F)n1 [encorafenib] | 0.281% | 5.43% | 55% | -2% | -2.55% | 4% | 4% | 
C[C@H]1Oc2cc(cnc2N)-c2c(nn(C)c2C#N)CN(C)C(=O)c2ccc(F)cc21 [lorlatinib] | 11% | 14% | -2.36% | 2.31% | 3.76% | 3.55% | -3.74% | 
CCN1CCN(c2ccc(Nc3cc(N(C)C(=O)Nc4c(Cl)c(OC)cc(OC)c4Cl)ncn3)cc2)CC1 [infigratinib] | 15% | -0.114% | -1.67% | -3% | -1.22% | -1.43% | 0.114% | 
COc1ccc(CN2C3CC2CN(c2ccc(-c4cc(OCC(C)(C)O)cn5ncc(C#N)c45)cn2)C3)cn1 [selpercatinib] | 88% | 64% | 30% | 51% | 1.43% | -4% | -0.427% | 
Cn1cnc2c(F)c(Nc3ccc(Br)cc3Cl)c(C(=O)NOCCO)cc21 [selumetinib] | 11% | -0.445% | -1.06% | -8% | -1.34% | -3% | -0.133% | 
CCc1nc(C(N)=O)c(Nc2ccc(N3CCC(N4CCN(C)CC4)CC3)c(OC)c2)nc1NC1CCOCC1 [gilteritinib] |  | 75% | 7.48% | 54% | 36% | 11% | 19% | 100%
CCN1C(=O)N(c2c(F)c(OC)cc(OC)c2F)Cc2cnc3[nH]c(CN4CCOCC4)cc3c21 [pemigatinib] | 7% | -0.799% | -5.3% | -1.79% | 5% | -0.468% | -0.948% | 
